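Where inhibition never reached the appropriate level, the endpoint shown equals the highest concentration tested. Otherwise, values were interpolated linearly from a five-concentration, 48-hour dose response in 96-well plates. TGI denotes the concentration required for complete inhibition of growth.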
Legend:
Assay in all cases: NCI tumour cell line growth inhibition, 48 h
MALME-3M melanoma = test system: MALME-3M melanoma
KM20L2 colon = test system: KM20L2 colon
IGROV1 ovarian = test system: IGROV1 ovarian
SNB-75 CNS = test system: SNB-75 CNS
SK-MEL-2 melanoma = test system: SK-MEL-2 melanoma
HOP-62 NSCLC = test system: HOP-62 NSCLC
M14 melanoma = test system: M14 melanoma
HOP-92 NSCLC = test system: HOP-92 NSCLC
SNB-19 CNS = test system: SNB-19 CNS
HCC-2998 colon = test system: HCC-2998 colon
UO-31 renal = test system: UO-31 renal
CCRF-CEM leukemia = test system: CCRF-CEM leukemia
SK-MEL-28 melanoma = test system: SK-MEL-28 melanoma
K-562 leukemia = test system: K-562 leukemia
KM12 colon = test system: KM12 colon
M19-MEL melanoma = test system: M19-MEL melanoma
XF 498 CNS = test system: XF 498 CNS
OVCAR-5 ovarian = test system: OVCAR-5 ovarian
CAKI-1 renal = test system: CAKI-1 renal
UACC-62 melanoma = test system: UACC-62 melanoma

| Structure (SMILES) | TGI (MALME-3M melanoma) [µM] | TGI (KM20L2 colon) [µM] | TGI (IGROV1 ovarian) [µM] | TGI (SNB-75 CNS) [µM] | TGI (SK-MEL-2 melanoma) [µM] | TGI (HOP-62 NSCLC) [µM] | TGI (M14 melanoma) [µM] | TGI (HOP-92 NSCLC) [µM] | TGI (SNB-19 CNS) [µM] | TGI (HCC-2998 colon) [µM] | TGI (UO-31 renal) [µM] | TGI (CCRF-CEM leukemia) [µM] | TGI (SK-MEL-28 melanoma) [µM] | TGI (K-562 leukemia) [µM] | TGI (KM12 colon) [µM] | TGI (M19-MEL melanoma) [µM] | TGI (XF 498 CNS) [µM] | TGI (OVCAR-5 ovarian) [µM] | TGI (CAKI-1 renal) [µM] | TGI (UACC-62 melanoma) [µM] |
| --- | --- | --- | --- | --- | --- | --- | --- | --- | --- | --- | --- | --- | --- | --- | --- | --- | --- | --- | --- | --- |
| CCN1/C(=C/C(C)=C/c2sc3ccccc3[n+]2CC)Sc2ccccc21 | 1.71 | 2.03 | 2 | 1.15 | 1.1 | 0.391 | 0.847 | 0.338 | 0.0976 | 0.876 | 1.47 | 0.166 | 1.22 | 1.24 | 1.21 | 2.16 | 0.663 | 1.73 | 0.693 | 1.21 |
| CNC(=O)CN1CC(=O)N(C)C(=O)C1 | > 100 | > 100 | > 100 | > 100 | > 100 | > 100 | > 100 | > 100 | > 100 | > 100 | > 100 | > 100 | > 100 | > 100 | > 100 | > 100 | > 100 | > 100 | > 100 | > 100 |
| COc1ccc2c(c1)c1cc(OC)ccc1n2CCCCOc1ccc(-c2c3ccccc3c(-c3ccc(OCCCCn4c5ccc(OC)cc5c5cc(OC)ccc54)cc3)c3ccccc23)cc1 | > 100 | > 100 | > 100 | > 100 | > 100 | > 100 | > 100 | > 100 | > 100 | > 100 | > 100 | > 100 | > 100 | > 100 | > 100 | > 100 | > 100 | > 100 | > 100 | > 100 |
